{
  "source": "patent US20220387358A1",
  "about": "“CERAMIDE ANALOG SACLAC MODULATES SPHINGOLIPID LEVELS AND MCL-1 SPLICING TO INDUCE APOPTOSIS IN ACUTE MYELOID LEUKEMIA” (University of Virginia Patent Foundation, priority 2019, published 2022)",
  "key": {"U937 AML cells": {"tested_on": "U937 AML cells", "experiment": "U937 AML xenograft model in NSG mice", "assay_type": "in vivo", "conditions": "5 mg/kg tail-vein, five times per week, 15 injections", "procedure": "(§1) MV4-11 AML cells expressing luciferase (luc2) and YFP (39) or U937 AML cells expressing luc2 and tdTomato (#72486, Addgene, Watertown, Mass., United States of America) were used to investigate the efficacy of SACLAC in NOD-scid […] (NSG) mice (Jackson Laboratories, Bar Harbor, Me., United States of America). Maximum tolerated dose and pharmacokinetic studies were also performed to determine safety and delivery of compound.\nFor the U937 model, 1×10^4 luciferase and tdTomato-expressing U937 cells in […] were introduced into 6- to 8-week-old female NSG mice via tail-vein injections. After six days, engraftment was confirmed as stated above. Mice were equally randomized into two groups of five mice and treated with vehicle or SACLAC at 5 mg/kg/day five times per week for 15 total injections. […]\nRed blood cells (RBC) were lysed with RBC Lysis Buffer (#420301, BioLegend, San Diego, Calif., United States of America) followed by cell surface staining with anti-human CD45 antibodies (#304014, clone HI30, BioLegend, San Diego, Calif., United States of America) and 7AAD (#420404, BioLegend, San Diego, Calif., United States of America) to detect viable human white blood cells (WBC) using an LSR II flow cytometer and BD FACS Diva software. […] Percentage of YFP, tdTomato or hCD45 positive cells was determined in FlowJo software (Becton Dickinson, Franklin Lakes, N.J., United States of America). […]"}, "human MV4-11 AML cells": {"tested_on": "human MV4-11 AML cells", "experiment": "MV4-11 AML xenograft model in NSG mice", "assay_type": "in vivo", "procedure": "as §1\nTo assess the efficacy of SACLAC in a transplantable human AML model, two cell line models were used. For the MV4-11 model, 2.5×10^6 luciferase and yellow fluorescent protein (YFP)-expressing MV4-11 cells in HBSS were introduced into 6- to 8-week-old female NSG mice via tail-vein injections. After 10-12 days, engraftment was confirmed using bioluminescence imaging with the IVIS Lumina LT Series III imaging system (PerkinElmer Inc., Waltham, Mass., United States of America). Mice were equally randomized into two groups of three mice and treated with vehicle or SACLAC at 5 mg/kg/day five times per week for 18 total injections. At the end of the treatment, animals were euthanized and peripheral blood was collected for flow cytometry analysis.\nRed blood cells (RBC) were lysed with RBC Lysis Buffer (#420301, BioLegend, San Diego, Calif., United States of America) followed by cell surface staining with anti-human CD45 antibodies (#304014, clone HI30, BioLegend, San Diego, Calif., United States of America) and 7AAD (#420404, BioLegend, San Diego, Calif., United States of America) to detect viable human white blood cells (WBC) using an LSR II flow cytometer and BD FACS Diva software. Viable cells were identified by gating on 7AAD-negative cells gated from singlets (SSC-A and FSC-W scales), after excluding the debris (SSC-A and FSC-A scales). Percentage of YFP, tdTomato or hCD45 positive cells was determined in FlowJo software (Becton Dickinson, Franklin Lakes, N.J., United States of America). All animal studies were performed with IACUC approval."}, "[1]": {"tested_on": "primary AML patient samples", "experiment": "Colony forming assay", "assay_type": "cell-based, human", "conditions": "six primary patient samples", "procedure": "Cryopreserved human AML patient samples were thawed and washed twice with RPMI 1640 supplemented with 2% heat inactivated fetal bovine serum (FBS). After washes, cells were cultured in triplicate in 12-well plates at a density of 0.1 to 2×10^5 cells per well in Human Methylcellulose Complete Media (#HSC003R&D Systems, Minneapolis, Minnesota, United States of America). Plating densities were selected for each case to yield colony outgrowth of 20-100 colonies per well. The desired cell number and dose of SACLAC or DMSO was added to the culture media and dispensed to multi-well plates. Colonies were propagated for 10-14 days and blast colonies (>20 cells) were counted in a blinded manner under the light microscope."}},
  "note": "Entries after “also recorded” stand apart in the source; their conditions may differ.",
  "data": [
    {"compound": "CCCCCCCCCCCCCCC[C@@H](O)[C@H](CO)NC(=O)CCl", "note": "[SACLAC, N-[(2S,3R)-1,3-dihydroxyoctadecan-2-yl]2-chloroacetamide]", "values": [
      {"measurement": "reduction in leukemic cells in the bone marrow", "setting": "U937 AML cells", "result": "up to 50%"},
      {"measurement": "toxicity in treated animals", "setting": "human MV4-11 AML cells; 5 mg/kg i.v. in β-HPCD", "result": "No overt toxicity; also recorded: non-toxic"},
      {"measurement": "body weight of treated animals", "setting": "human MV4-11 AML cells; 5 mg/kg i.v. in β-HPCD, course of the study", "result": "weight gain; also recorded: did not lose weight"},
      {"measurement": "decrease in leukemic burden (circulating leukemic cells in blood)", "setting": "human MV4-11 AML cells; 5 mg/kg tail-vein, five times per week, 18 injections", "result": "~75", "unit": "%"},
      {"measurement": "colony formation decreased (average)", "setting": "[1]; 5 μM", "result": 32, "unit": "%"},
      {"measurement": "colony formation decreased (average)", "setting": "[1]; 20 μM", "result": 69, "unit": "%"}
    ]}
  ]
}
